In patent US9708330B2, “2,3-dihydroimidazol[1,2-C]pyrimidin-5(1-H)-one based ipoprotein-associated phospholipase A2 (Lp-PLA2) inhibitors” (GlaxoSmithKline Intellectual Property Development Limited, priority 2013, dated 2017):

Legend:
rat EAE model = test: Rat experimental autoimmune encephalomyelitis (EAE) model, preventive treatment; assay type: in vivo
Description: A further study was carried out to study the impact of Lp-PLA2 inhibitors on modulating M1/M2 imbalance. In this study, rats were induced to develop experimental autoimmune encephalomyelitis (EAE) by immunization with myelin basic protein (MBP) antigen and treated with a known Lp-PLA2 inhibitor: 5-((9-Methoxy-4-oxo-6,7-dihydro-4H-pyrimido[6,1-a]isoquinolin-2-yl)oxy)-2-(3-(trifluoromethyl)phenoxy)benzonitrile (See PCT application no. PCT/CN2011/001597). In this preventive treatment model, the compound was administered at day 0 (day of immunization) and continued to administer until day 22. The study lasted for 25 days. Rats were subsequently monitored for symptoms of EAE. Rats were immunized with MBP to develop EAE and symptoms were monitored daily. Plasma Lp-PLA2 activity, OxLDL, and LysoPC concentration were determined at different time points through the course of EAE.

[1] = tested on: splenic macrophages and CNS infiltrating macrophages; test: Ex vivo analysis of M1 and M2 markers in macrophages of EAE rats by realtime PCR; parameters: species or system rat; settings: macrophages of compound treated EAE rats, day 13 post MBP-immunization
Description: Ex vivo analysis of proinflammatory (M1) and anti-inflammatory (M2) markers in control and compound treated EAE rats. Splenic macrophages were harvested at day 13 post MBP-immunization and assayed for expression of a variety of markers by realtime PCR. CNS infiltrating cells were harvested and macrophages were analyzed for expression of M1 and M2 markers by realtime PCR.

Lp-PLA2 in human plasma [2] = target: T1, Lp-PLA2 in human plasma (Homo sapiens, UniProt Q13093); test: Lp-PLA2 human plasma assay, Thio-PAF assay (3a); assay type: biochemical; settings: pooled human plasma, Examples 1-137, read-out: pIC50 in the Lp-PLA2 human plasma assay (converted)
T1 construct: from tissue; host or cells: pooled human plasma
T1 sequence (Q13093 22-441): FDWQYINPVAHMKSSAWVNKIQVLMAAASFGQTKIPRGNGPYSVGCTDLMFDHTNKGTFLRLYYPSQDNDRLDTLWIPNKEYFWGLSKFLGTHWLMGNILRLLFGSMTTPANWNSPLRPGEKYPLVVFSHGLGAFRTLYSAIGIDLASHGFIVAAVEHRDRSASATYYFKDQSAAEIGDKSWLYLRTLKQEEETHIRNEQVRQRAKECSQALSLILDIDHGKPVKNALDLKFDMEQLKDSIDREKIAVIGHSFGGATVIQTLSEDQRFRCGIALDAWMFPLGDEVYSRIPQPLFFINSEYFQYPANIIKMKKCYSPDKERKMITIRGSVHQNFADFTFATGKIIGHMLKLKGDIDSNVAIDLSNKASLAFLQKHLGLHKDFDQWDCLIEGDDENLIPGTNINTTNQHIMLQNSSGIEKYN
Text: The human plasma assay utilizes a thioester analog of PAF (phosphatidylcholine), where hydrolysis yields to the formation of a phospholipid containing a free thiol group. The amount of thiol is quantitated continuously by reacting with CPM (7-diethylamino-3-(4′-maleimidylphenyl)-4-methylcoumarin), a maleimide which increases in fluoresence after Michael addition of thiols. This assay may detect the activity of Lp-PLA2 in human plasma, as determined by specific inhibition by Lp-PLA2 inhibitors.
The thio-PAF assay was run as a quenched 15 μL assay. Compounds source plate was prepared by making 1:3 (by volume) serial dilution of the compounds into pure DMSO on 384-well microplate. 0.01 μL of compounds on compound source plate were transferred to 384 well Greiner 784076 (black) low-volume plates by ECHO liquid dispenser. 8 μL pooled human plasma, which was previously aliquoted and frozen, was added. Plates were centrifuged for 10 sec at 500 rpm. After 30 minutes preincubation, 2 μL of substrate solution comprising 2.5 mM 2-thio-PAF [from ethanol stock], 32 μM CPM [from a DMSO stock] and 3.2 mM NEM (N-ethylmaleimide) [made fresh daily in DMSO] in assay buffer of 50 mM HEPES, pH 7.4, 150 mM NaCl, 1 mM CHAPS was added to 384 well Greiner 784076 (black) low-volume plates by BRAVO liquid handling station. […] Plates were read at ex: 380 /em: 485 using Envision microplate reader. […]

[3] = target: T2, recombinant human Lp-PLA2 (Homo sapiens, UniProt Q13093); test: Recombinant human Lp-PLA2 assay (rhLp-PLA2), PED6 assay; assay type: biochemical; settings: Examples 1-137, read-out: rhLp-PLA2 (pIC50) (converted)
T2 sequence (Q13093 22-441): T1 sequence (Q13093 22-441)
Text: N-((6-(2,4-dinitrophenyl)amino)-hexanoyl)-2-(4,4-difluoro-5,7-dimethyl -4-bora-3a,4a-diaza-s-indacene-3-pentanoyl)-1-hexadecanoyl-sn-glycero-3-phosphoethanolamine, triethylammonium salt (PED6) is a commercially available fluorescently-labeled phospholipid, which is commercially available from Invitrogene and Molecular Probes. There is a quenching para-nitro phenyl (PNP) group in the sn3 position and a Bodipy fluorescein (FL) group in the sn2 position. Upon cleavage with Lp-PLA2, the Bodipy FL group is liberated and then may result in an increase in fluorescence. Inhibitors of Lp-PLA2 therefore prevent this cleavage and no fluorescent increase is observed.
The PED6 assay was run as an unquenched 10 μL assay. The source plate containing the compounds to be tested was prepared by making 1:3 (by volume) serial dilution of the compounds within DMSO on 384-well microplate. Then, 0.01 μL of the compounds on compound source plate were transferred into 384 well Greiner 784076 (black) plates using ECHO liquid dispenser. […] The plates were read for fluorescence intensity at ex: 480/em: 540 using ViewLux microplate imager for Envision spectrofluroimeters pIC50 data, curve and QC analysis was conducted by using XL fit module in Excel.

[4] = target: T2, recombinant human Lp-PLA2; test: Recombinant human Lp-PLA2 assay, hrThioPAF assay; assay type: biochemical; settings: Example 138, read-out: rhLp-PLA2 (pIC50) (converted)
Text: 1-O-hexadecyl-2-deoxy-2-thio-S-acetyl-sn-glyceryl-3-phosphorylcholine (2-thio-PAF) is a substrate for PAF-hydrolases (PAF-AH) commercially available from Cayman Chemical. Upon cleavage with PAF-AH, the free thiol is released at the sn-2 position and can then react with 7-diethylamino-3-(4′-maleimidylphenyl)-4-methylcoumarin (CPM) a thiol-reactive coumarin. This reaction (Michael addition) results in an increase in fluorescence. Inhibitors of Lp-PLA2 therefore prevent this cleavage and no fluorescent increase is observed.
The Thio-PAF assay was run as an unquenched 20 μL assay. The source plate containing the compounds to be tested was prepared by making 1:3 (by volume) serial dilution of the compounds within DMSO on 384-well microplate. Then, 5 μL of the compounds on compound source plate were transferred into 384 well Greiner 784076 (black) plates using STAR+ (Hamilton) liquid dispenser. 10 μL of recombinant human Lp-PLA2 enzyme (20 pM rhLp-PLA2 in assay buffer of 50 mM HEPES, pH 7.4, 150 mM NaCl, 1 mM CHAPS) was added to each well of the plate. […] The plates were read for fluorescence intensity at ex: 380 nm/em: 485 nm using Envision plate reader (Perkin Elmer). […]

Lp-PLA2 in human plasma [5] = target: T1, Lp-PLA2 in human plasma; test: Lp-PLA2 human plasma assay, alternative Thio-PAF assay (3b); assay type: biochemical; settings: pooled human plasma, Example 138, read-out: pIC50 in the Lp-PLA2 human plasma assay (converted)
Description: The human plasma assay utilizes the same thioester analog of PAF as described in (1b) “hr ThioPAF” assay. This assay may detect the activity of Lp-PLA2 in human plasma, as determined by specific inhibition by Lp-PLA2 inhibitors.
The thio-PAF assay was run as a quenched 20 μL assay. Compounds source plate was prepared by making 1:3 (by volume) serial dilution of the compounds into pure DMSO on 96-well microplate. 5 μL of compounds on compound source plate were transferred to 96-well Corning 3686 (black) low-volume plates by STAR+ (Hamilton) liquid dispenser. 10 μL pooled human plasma, which was previously aliquoted and frozen, was added. Plates were centrifuged for 30 sec at 1000 rpm. After 15 minutes preincubation at room temperature, 5 μL of substrate solution comprising 2 mM 2-thio-PAF [from ethanol stock], 52 μM CPM [from a DMSO stock] and 2.5 mM NEM (N-ethylmaleimide) [made fresh daily in DMSO] in assay buffer (50 mM HEPES, pH 7.4, 150 mM NaCl, 1 mM CHAPS) was added to 96-well Corning 3686 (black) low-volume plates. After 3 mins, reaction was quenched with 10 μL of 5% aqueous trifluoroacetic acid (TFA). Plates were centrifuged 30 sec at 1000 rpm, covered to protect from light and incubated for 10 min at room temperature. Plates were read at ex: 380 nm/em: 485 nm using Envision plate reader (Perkin Elmer). […]

COc1ccc2c(c1)CCn1c-2cc(Oc2ccc(Oc3cccc(C(F)(F)F)c3)c(C#N)c2)nc1=O [5-((9-Methoxy-4-oxo-6,7-dihydro-4H-pyrimido[6,1-a]isoquinolin-2-yl)oxy)-2-(3-(trifluoromethyl)phenoxy)benzonitrile]
plasma Lp-PLA2 activity (rat EAE model; rat EAE plasma): decreased | plasma LysoPC levels (rat EAE model; rat EAE plasma): decreased | clinical disease (EAE symptoms) (rat EAE model; rats immunized with MBP, compound administered day 0 until day 22): reduction in clinical disease | anti-inflammatory (M2) markers expression [1]: increase in M2 markers | proinflammatory (M1) markers expression [1]: decrease in M1 markers

C[C@H]1Cn2c(cc(OCc3cccc(F)c3F)nc2=O)N1C [E111, (S)-7-((2,3-difluorobenzyl)oxy)-1,2-dimethyl-2,3-dihydroimidazo[1,2-c]pyrimidin-5(1H)-one]
IC50 (Lp-PLA2 in human plasma [2]): > 10000 nM

CC1(C)Cn2c(cc(OCc3ccc(F)c(F)c3)nc2=O)N1 [E120, 7-((3,4-difluorobenzyl)oxy)-2,2-dimethyl-2,3-dihydroimidazo[1,2-c]pyrimidin-5(1H)-one]
IC50 (Lp-PLA2 in human plasma [2]): > 10000 nM

C[C@H]1Cn2c(cc(OCc3cc(F)c(Oc4ccnc(C(F)(F)F)c4)c(F)c3)nc2=O)N1 [E131, (S)-7-((3,5-difluoro-4-((2-(trifluoromethyl)pyridin-4-yl)oxy)benzyl)oxy)-2-methyl-2,3-dihydroimidazo[1,2-c]pyrimidin-5(1H)-one]
IC50 [3]: 0.251 nM

C[C@@H]1Cn2c(cc(OCc3cc(F)c(Oc4ccnc(C(F)(F)F)c4)c(F)c3)nc2=O)N1 [E138, (R)-7-((3,5-difluoro-4-((2-(trifluoromethyl)pyridin-4-yl)oxy)benzyl)oxy)-2-methyl-2,3-dihydroimidazo[1,2-c]pyrimidin-5(1H)-one]
IC50 [4]: 0.794 nM | IC50 (Lp-PLA2 in human plasma [5]): ≤ 100 nM
